# From US9370189B2, “Controlling Pseudomonas aeruginosa persister cells with GM-CSF” (priority 2012, dated 2016)
# System: planktonic cells of PDO300
# Assay: Synergistic effect of GM-CSF, tobramycin and alginate lyase on planktonic cells of PDO300
# Format: cell-based, Pseudomonas aeruginosa
# From the text: This Example describes the use of alginate lyase as an enzyme to break down the extra alginate in order to understand the effect of the presence of alginate in PDO300 on the GM-CSF and antibiotic treatment.
# To improve the effects of GM-CSF and antibiotics on the alginate overproducing PDO300, alginate lyase was used as an enzyme to break down the extra alginate. Alginate lyase is an enzyme which depolymerizes the alginate polymer by […] reaction. The alginate lyase used in the experiment was alginate lyase from Flavobacterium sp. (Sigma, catalog no. A1603-100MG). The experimental method was similar as mentioned above for the combined effect of GM-CSF and antibiotic. The alginate lyase was added as 0.05 mg/mL.
# In brief, the experiment was performed in exponential phase with an optical density at 600 nm (OD600) of 0.3 to 0.4. After preparing an overnight culture of the tested strain in 25 ml LB medium, a subculture was prepared with an OD600 of 0.01 in 50 mL LB medium. The subculture was incubated at 37° C. with shaking at 200 rpm for 3-4 h, till OD600 of 0.3 to 0.4 was reached. The exponential phase subculture was then divided equally into two centrifuge tubes. The subcultures were washed twice with 0.85% NaCl buffer by vortexing and then centrifuging at 4° C., 8000 rpm for 10 min each time. The washed subcultures were resuspended in 25 mL 0.85% NaCl buffer and vortexed gently for 1 min. One of the subculture was selected for isolation of persisters by adding 200 μg/mL ciprofloxacin. After adding the antibiotic, the subculture was incubated at 37° C. with shaking at 200 rpm for 3.5 h. The other subculture was used to quantify the total number of viable cells.
# For testing the direct impact of GM-CSF on the total viable cells, 1 mL of the subculture was added in 24 microcentrifuge tubes; 12 were control and the other 12 were GM-CSF treatment samples. In the treatment samples, GM-CSF was added to a concentration of 2.43 pg/mL. The control samples were supplemented with the same concentration of PBS and BSA as present in 2.43 pg/mL GM-CSF samples. […]
substance,measurement,setting,value
"GM-CSF: granulocyte macrophage-colony stimulating factor, a cytokine secreted by macrophages; recombinant human GM-CSF (R&D systems) in binding tests",persisters changed by,"planktonic PDO300, 2.43 pg/mL GM-CSF and 50 μg/mL tobramycin",−63.6±5.4%
same,persisters changed by,"planktonic PDO300, 2.43 pg/mL GM-CSF, 50 μg/mL tobramycin and 0.05 mg/mL Alginate lyase",−74.1±3.3%
same,persisters changed by,"planktonic cells (Example on PDO300; sentence prints PAO1), 2.43 pg/mL GM-CSF alone",−15.0±4.2%
